Results as given in patent publication US11753453B2, “Peptide kinase inhibitors and methods of use thereof” (B.G. NEGEV TECHNOLOGIES AND APPLICATIONS LTD., priority 2017, dated 2023).
Each block holds one molecule with its values, some of them ahead of it.

How the values were obtained:
MDA-MB-231 [1] = experiment: XTT cell viability assay, MDA-MB-231; type: cell-based; settings: 5 μM and 10 μM, compared to the other peptides
Experimental: (§1) FIGS. 6A-6C show the efficacy of uORF2-encoded peptide mutated at position 10 (uPEP1-26[c/a]) in reducing cell viability on various cell lines. FIG. 6A: MCF-7 cells were seeded in 96 well plate and incubated for 24 hours with the indicated peptides. After 24 hours, the proliferation rate was monitored using XTT kit (Biological Industries, Israel) according to the manufacturer's instructions.
(§2) Cells were seeded on 96-wells plate at a cell density of 20,000 cells/well and were grown for 48 hours. Cells were treated as indicated for 48 hours. A XTT (#20-300-1000, Biological Industries) reaction solution was prepared (containing the XTT and activation solutions) and added (50 μl/well) into cell medium for 2-4 hours at 37° C. The plate was immediately read in an ELISA plate reader at 450-500 nm. Background reading was performed at 630 nm, and the results calculated as the differences between the values.
(§3) A uPEP21-26[10C/A] mutation of the PKCeta uORF2 peptide (SEQ ID NO: 1) was synthesized containing an alanine substitution at Cys-10, herein referred to as SEQ ID No 5. Cell lines MCF-7 (FIG. 6A), MDA-MB-231 (FIG. 6B) and HeLa (FIG. 6C) were treated with uPEP218-26, uPEP21-26, uPEP21-26[10C/A], uPEP21-17 and ηPS at doses of 5 μM and 10 μM in order to determine cell proliferation.

HeLa = experiment: XTT cell viability assay, HeLa; type: cell-based; settings: 5 μM and 10 μM, compared to the other peptides
Experimental: as §1, §2, §3

MCF-7 = experiment: XTT cell viability assay, MCF-7; type: cell-based; settings: 5 μM and 10 μM, compared to the other peptides
Experimental: as §1, §2, §3

MCF7 (breast cancer) = experiment: Scratch (wound healing) assay, MCF7; type: cell-based
Experimental: (§4) FIG. 3A is a photograph taken from the scratch assay performed on MDA-MB-231 cells. Cells were seeded in 24-well plate and incubated for 4 hours with the indicated peptides in a free-serum media. After 4 hours, a scratch was made with a 200 μl pipette tip. Photographs of a selected area of each scratch were taken at indicated time points. Areas were measured by ImageJ software. FIGS. 3B-3D are graphs representing the analysis of the scratch assay performed as described in […] on cell lines MDA-MB-231, MCF-7 and MCF10A, respectively. All values were normalized to time 0 of each well and presented in percentage.
(§5) MCF-7 and MDA-MB-231 cells were seeded in 24-well plates and grown to full confluency. Subsequently, media with low serum (2% to MCF-7 and 0.1% to MDA-MB-231) containing the peptides were added to the wells for 4 h. Then, a scratch was placed in the middle of the well with a sterile 200 μl pipette tip (Eppendorf). After washing once with PBS, the respective treatments were returned. Wells were photographed at total magnification of 4× with an IX70 Olympus Optical light microscope (Tokyo, Japan). 3 Images for each well were taken every 24 h.
(§6) The in vitro effect of PKCeta uORF2 on cancer cell migration was tested […] by a standard scratch test assay, as described above. […]

MCF7 = experiment: PrestoBlue cell viability/proliferation assay, MCF7; type: cell-based; settings: compared with uPEP9-26, uPEP18-26 and ηPS
Experimental: (§7) FIGS. 4A-4D show the ability of the peptide encoded by uORF2 (uPEP21-26) to reduce viability of breast cancer and glioblastoma cells. FIG. 4A: MCF-7 cells were seeded onto 48-well plates. 24 hours later, the cells were incubated for 24 hours with the indicated peptides). Following incubation, the medium with tested peptide was gently aspirated from each well and 25 μL of PrestoBlue reagent was added to each well of the 48-well plate and incubated at 37° C. in 5% CO2 for 15 min, as recommended. The absorbance was detected by ‘Infinite M200 PRO’ reader. FIGS. 4B-4D are the results of experiments identical to that described by FIG. 4A, but performed on cells lines U251 MG (glioblastoma cell line), MDA-MB-231 and MCF10A, respectively.
(§8) MCF-7 and MDA-MB-231 cells were seeded at 2×10^4 cells/well in 48-well plates. After 24 h serum free-media containing the peptides was added to the wells for 4 h. Then, medium with serum was added and the plate was incubated for 24 h at incubator (5% CO2 humidified atmosphere at 37° C.). Following incubation, the medium with tested peptide was gently aspirated from each well and 25 μL of PrestoBlue™ reagent (Thermo #A13261) was added to each well of the 48-well plate and incubated at 37° C. in 5% CO2 for 15 min, as recommended. The absorbance was recorded at 570 nm and detected by ‘Infinite M200 PRO’ reader. […]

[2] = system: U251 MG (glioblastoma cell line); experiment: PrestoBlue cell viability/proliferation assay, U251 MG; type: cell-based; settings: compared with uPEP9-26, uPEP18-26 and ηPS
Experimental: as §7, §8

PKCη = biological target: T1, PKCη (Homo sapiens, UniProt P24723); experiment: In vitro kinase assay of PKCη with Myelin Basic Protein as substrate; type: biochemical; settings: p-MBP, γ-32P radioactive kinase assay; compared to control peptide uPEP9-26 and ηPS; peptides 2 or 10 μM
T1 construct: HA; expressed in transfected cells
Experimental: (§9) FIG. 2A is a schematic view of the peptides derived from PKCη and used in the examples described herein. uPEP1-26 refers to the complete peptide encoded by uORF2; uPEP9-26 and uPEP18-26 refer to control peptides, which lack the PS motif; ηPS refer to a peptide containing the internal PS domain of PKCη. […] The kinase activity of PKCη was measured using Myelin Basic Protein (p-MBP) as a substrate and γ-^32P radioactive kinase assays. All values were normalized to the control sample without a peptide (Cont.). The data shown are the means of three separate experiments, and is also presented as the gel in FIG. 2C. FIG. 2D: Kinase assays were conducted as described in FIG. 2B, using uPEP1-26 at 2 μM concentration are depicted. All values were normalized to the control sample (without peptide). The data shown are the means of three separate experiments.
(§10) Immunoprecipitations were performed by using pre-absorbed mAbs on protein A/G-agarose beads for 1 h at room temperature. Excess Abs was removed by 3 washes in cold phosphate buffered saline (PBS) and Ab-coated beads were incubated with cell lysates overnight at 4° C. Immune complexes were precipitated by centrifugation followed by extensive washing with RIPA buffer without SDS (10 mM Tris-HCl pH 8.0, 100 mM NaCl, 5 mM EGTA, 1% NP-40, 45 mM β-mercaptoethanol, and 50 mM NaF). […] Kinase activity was evaluated with exposing reagents. […]

[3] = system: PKCs from the novel PKC subfamily; experiment: In vitro kinase assay on PKC subfamilies; type: biochemical; settings: peptide at 2 μM; normalized to control without peptide
Experimental: as §9, §10

[4] = system: MDA-MB-231 (breast cancer); experiment: Scratch (wound healing) assay, MDA-MB-231; type: cell-based; settings: MDA-MB-231, scratch assay
Experimental: as §4, §5, §6

MDA-MB-231 [5] = experiment: PrestoBlue cell viability/proliferation assay, MDA-MB-231; type: cell-based; settings: compared with uPEP9-26, uPEP18-26 and ηPS
Experimental: as §7, §8

4T1 cells = experiment: Breast 4T1 mouse model with PKCη knockdown cells; type: in vivo; settings: 4T1 cells expressing shRNA vs scrambled control, female BALB/c mice
Experimental: FIG. 7A: 4T1 cells expressing shPKCη (SEQ ID NO: 33) or scrambled control were injected into mammary fat pad of 8-week-old female BALB/c mice. Tumor diameters were measured every week with vernier calipers. FIG. 7B: The mice were sacrificed after 8 weeks, and number of metastasis formed in the lungs was counted using Bouin's solutions. Error bars represent the mean±s.e.m, statistical analysis indicates for statistical significance in two-tailed, unpaired sample t-test.
Mice were anesthetized with a solution of 10 ml/mg Ketamine and 1.17 ml/mg xylazine, in saline. Anesthesia was injected intraperitoneally (IP) after sterilizing the inoculation area of the mice with 70% ethanol solution. Using a 27-gauge needle, 4T1 control and shPKCη knockdown cells (transfected with SEQ ID NOs 33-35 or scrambled control (obtained from the ATCC) were injected a few millimeters from the nipple, underneath the skin (120,000 cells in 50 μl per mouse).
Each week, mice were tested for tumors and the primary tumors were examined by caliper. After 10 weeks, mice were euthanized and examined for metastases in lung, liver and spleen, and samples were prepared for immuno staining.
To test the in vivo effects of PKCeta on tumor formation, the establishment and growth of breast cancer cells with (4T1 control cells) and without PKCeta (PKCeta knockdown 4T1 cells) was compared.

T1 sequence (P24723 whole entry): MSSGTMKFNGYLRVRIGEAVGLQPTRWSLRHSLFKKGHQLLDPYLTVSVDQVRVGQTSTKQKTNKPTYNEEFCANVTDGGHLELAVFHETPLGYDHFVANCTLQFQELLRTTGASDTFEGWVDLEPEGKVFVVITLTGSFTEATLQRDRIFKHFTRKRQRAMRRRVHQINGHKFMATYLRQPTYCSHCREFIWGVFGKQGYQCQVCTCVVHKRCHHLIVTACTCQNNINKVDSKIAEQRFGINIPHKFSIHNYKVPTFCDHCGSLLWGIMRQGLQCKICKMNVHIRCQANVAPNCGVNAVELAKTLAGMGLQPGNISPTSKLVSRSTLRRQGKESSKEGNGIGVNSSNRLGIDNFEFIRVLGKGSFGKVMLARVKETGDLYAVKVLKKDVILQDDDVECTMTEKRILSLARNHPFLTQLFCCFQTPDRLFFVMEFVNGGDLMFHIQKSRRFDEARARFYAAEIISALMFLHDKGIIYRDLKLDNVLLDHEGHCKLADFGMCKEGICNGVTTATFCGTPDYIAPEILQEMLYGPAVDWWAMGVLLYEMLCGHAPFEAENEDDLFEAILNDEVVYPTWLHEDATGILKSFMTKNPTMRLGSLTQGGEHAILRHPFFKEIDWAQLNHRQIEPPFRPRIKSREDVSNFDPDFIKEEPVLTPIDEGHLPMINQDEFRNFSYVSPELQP

Molecule: uPEP1-26[10C/A]: full-length PKCeta derived uORF peptide with alanine substitution at Cys-10; MASRGALRRXLSPGLPRLLHLSRGLA wherein X is A (MASRGALRRALSPGLPRLLHLSRGLA)
reduction of cell viability (MDA-MB-231 [1]): efficiently reduced cell viability
reduction of cell viability (HeLa): efficiently reduced cell viability
reduction of cell viability (MCF-7): efficiently reduced cell viability

inhibition of kinase activity of PKCη (PKCη): strongest inhibitor
inhibition of kinase activity of PKCs from the novel PKC subfamily [3]: strongly inhibits
Molecule: uPEP1-26: full-length human PKCeta uORF2 peptide, 26 amino acids; MASRGALRRXLSPGLPRLLHLSRGLA wherein X is C (MASRGALRRCLSPGLPRLLHLSRGLA; listed as Homo sapiens)
inhibition of cell migration (MCF7 (breast cancer)): inhibited migration
inhibition of cell proliferation (MCF7): inhibited cell proliferation the most
inhibition of cell proliferation [2]: inhibited cell proliferation the most
inhibition of cell migration [4]: inhibited migration
inhibition of cell proliferation (MDA-MB-231 [5]): inhibited cell proliferation the most

B1: SEQ ID NO: 33: shRNA sequence for targeting PKCη expression (nucleic acid)
chain: GATCCCCGGCCCGTCTTAACTCCGATTGATCTCGATCAATCGGAGTTAAGACGGGTTTTTG
formation of tumor metastases (lungs) (4T1 cells): inhibited the formation of tumor metastases
tumor volume over time (4T1 cells; mammary fat pad): significant inhibition in tumor size
